According to patent publication EP3368040B1, “METHODS AND COMPOSITIONS FOR RECOVERY FROM STROKE” (Eip Pharma, LLC, priority 2015, dated 2017):

How the values were obtained:
[1] = test system: animal models of stroke; details: administered 24-hours after stroke; Piao et al. 2003; cited from earlier work
[2] = brain versus blood drug concentration in pre-clinical studies; type: in vivo
[3] = test system: rat model of stroke; assay: transient MCAO in rats: neurological scoring (Neuroscore, mNSS); type: in vivo, Sprague Dawley rats
Procedure: (§1) Altogether 76 adult male Sprague Dawley rats, purchased from Harlan Laboratories, (Israel), and weighing 300-350 g were used for the experiment. Animals were housed at a standard temperature (20-24°C) and in a light-controlled environment (12 hours light / 12 hours dark) with ad libitum access to food and water. Animals were grouped as follows: • Group 1M: 20 tMCAO animals treated twice-a-day with vehicle from Day 3 (day 1 being day of stroke surgery) to Day 42 (via PO gavage) • Group 2M: 22 tMCAO animals treated twice-a-day with VX-745 (1.5 mg/kg) from Day 3 (day 1 being day of stroke surgery) to Day 42 (via PO gavage) • Group 3M: 21 tMCAO animals treated twice-a-day with VX-745 (4.5 mg/kg) from Day 3 (day 1 being day of stroke surgery) to Day 42 (via PO gavage)
Transient middle cerebral artery occlusion was performed according to the method described in R. Schmid-Elsaesser et al., Stroke, 29(10):2162-2170 (1998). The right Common Carotid Artery (CCA) was exposed through a midline neck incision and carefully dissected free from surrounding nerves and fascia - from its bifurcation to the base of the skull. The occipital artery branches of the ECA (External Carotid Artery) were then isolated, and these branches were dissected and coagulated. The ECA was dissected further distally and coagulated along with the terminal lingual and maxillary artery branches, which was then divided. The ICA (Internal Carotid Artery) was isolated and carefully separated from the adjacent vagus nerve, and the pterygopalatine artery was ligated close to its origin with a 5-0 nylon suture (SMI, Belgium). Next, a 4-0 silk suture was tied loosely around the mobilized ECA stump, and a 4 cm length of 4-0 monofilament nylon suture (the tip of the suture was blunted by using a flame, and the suture was coated with polylysine, prior to insertion) was inserted through the proximal ECA into the ICA and thence into the circle of Willis, effectively occluding the MCA. The surgical wound was closed and the animals were returned to their cages to recover from anesthesia. […]

[4] = test system: rat model of stroke; assay: transient MCAO in rats: stepping test; type: in vivo, Sprague Dawley rats; details: Week 4 up to Week 6; 1.5 and 4.5 mg/kg PO twice a day
Procedure: as §1
(§2) Transient middle cerebral artery occlusion was performed according to the method described in R. Schmid-Elsaesser et al., Stroke, 29(10):2162-2170 (1998). […]
Stepping Test. […] The animal was held with its hind limbs fixed in one hand and the forelimb, not to be monitored, in the other, while the unrestrained fore-paw touches the table. The number of adjusting steps were counted while the animal was moved sideways along the table surface (85 cm during approximately five seconds), in the forehand & backhand direction for both forelimbs. […]

[5] = test system: rat model of stroke; assay: transient MCAO in rats: forelimb placement test; type: in vivo, Sprague Dawley rats; details: Week 4 and Week 6; 1.5 and 4.5 mg/kg PO twice a day
Procedure: as §1
Transient middle cerebral artery occlusion was performed according to the method described in R. Schmid-Elsaesser et al., Stroke, 29(10):2162-2170 (1998). The right Common Carotid Artery (CCA) was exposed through a midline neck incision and carefully dissected free from surrounding nerves and fascia - from its bifurcation to the base of the skull. The occipital artery branches of the ECA (External Carotid Artery) were then isolated, and these branches were dissected and coagulated. The ECA was dissected further distally and coagulated along with the terminal lingual and maxillary artery branches, which was then divided. […]

[6] = test system: rat model of stroke; assay: transient MCAO in rats: body swing test; type: in vivo, Sprague Dawley rats; details: particularly in the 4.5 mg/kg dose group
Procedure: as §1, §2
Body Swing Test. […] A swing was recorded whenever the rat moved its head out of the vertical axis to either side. Before attempting another swing, the rat had must return to the vertical position for the next swing to be counted. Twenty (20) total swings were counted. […] Body swing scores were expressed as a percentage of rightward over total swings. […]

[7] = transient MCAO in rats: body weight monitoring; type: in vivo, Sprague Dawley rats; details: through the study; 1.5 and 4.5 mg/kg PO twice a day versus vehicle
Procedure: as §1
Animals were handled at a minimum for three days before the surgery. Baseline measures were taken before stroke was induced. Stroke surgery occurred on Day 1. On Day 2, 24 hours post-stroke surgery, Neuroscore testing was performed. Only animals reaching and exceeding Neuroscore criteria was included in the study. On Days 3-42, treatment with vehicle or VX-745 was administered twice a day for 40 days via PO (oral) gavage for all groups. Behavioral tests for all groups were conducted on weeks 4 and 6. Animals were sacrificed on Day 44 and brains were harvested. […]

[8] = test system: IL-1β; assay: transient MCAO in rats: IL-1β ELISA of brain at study termination; type: in vivo, Sprague Dawley rats; details: study termination (Day 44); right minus left hemisphere; trend to lower concentrations in treated groups
Source text: The brains of all animals were harvested on Day 44. Rats were sacrificed by CO2 inhalation. Brains were harvested from all animals in each group, divided to left and right hemisphere, weighed, and snap frozen.
Brains were harvested at study termination. Each brain was dissected into two hemispheres and each hemisphere was weighed and enclosed into tubes marked Left or Right. Each tube was immediately frozen in liquid nitrogen and stored at (-80)°C. The tissues were defrosted and homogenized in 1 ml / 200 mg tissue of 20mM Tris-HCL pH 7.4 containing a protease inhibitor cocktail (50 µl/ml). Samples were centrifuged at 10,000 g for 15 min at 4°. Clear supernatants were aliquoted (150 µl/aliquot) and stored at (-80)°C until EILSA assays were performed. ELISA assay was executed according to kit instructions. Standards and samples were tested in duplicates.
Following study termination, animals were also tested for IL-1β brain levels using the ELISA system (see Figure 8 for standard curves). The variability of the results was too large to allow definitive conclusions. All the results below the Lower Limit of Quantification (LLOQ) were assigned the LLOQ value of 5pg/ml. Then, results for the uninjured left side were subtracted from the results of the right side. The distribution for individual rats is given in the figure below (n=18 in each of the study groups) (Figure 9).

[9] = transient MCAO in rats: mortality and clinical signs; type: in vivo
Procedure: Animals were handled at a minimum for three days before the surgery. Baseline measures were taken before stroke was induced. Stroke surgery occurred on Day 1. On Day 2, 24 hours post-stroke surgery, Neuroscore testing was performed. Only animals reaching and exceeding Neuroscore criteria was included in the study. […] Behavioral tests for all groups were conducted on weeks 4 and 6. Animals were sacrificed on Day 44 and brains were harvested.

[10] = test system: cytokine production; details: inhibition of cytokine production; cited from earlier work
[11] = test system: cytokine signaling; details: relative to IC50 for cytokine production; Alam 2015; cited from earlier work
[12] = treatment of rheumatoid arthritis; cited from earlier work

SMILES | effect on recovery from neurologic deficit [1] | drug concentrations in the brain compared with the blood [2] | neuroscore, difference between the two doses ([3]; 1.5 mg/kg versus 4.5 mg/kg PO twice a day (Figure 2)) | neuroscore delta (change from Day 2 to actual Week) versus vehicle treated control group ([3]; Week 4 or Week 6, 1.5 and 4.5 mg/kg PO twice a day, Day 3 to Day 42) | absolute neuroscore versus vehicle treated control group ([3]; Weeks 4 and 6, 1.5 and 4.5 mg/kg PO twice a day, Day 3 to Day 42, start 48 hours after reperfusion) | stepping test, sensory motor deficit (number of steps, left forelimb) versus vehicle treated control group [4] | forelimb placement test, sensory motor improvement versus vehicle treated control group [5] | body swing test, outcome [6] | body weight, differences between groups [7] | IL-1β levels in the brain, differences between groups [8] | rats that died after treatment initiation ([9]; 1.5 mg/kg group (2M), within two weeks of treatment initiation) | general clinical signs, differences between groups ([9]; 1.5 and 4.5 mg/kg PO twice a day versus vehicle) | whole blood IC50 [10] | IC50 for inhibition of cytokine signaling [11] | mean blood concentration [12]
C[S+]([O-])c1ccc(-c2nc(-c3ccc(F)cc3)c(-c3ccncc3)[nH]2)cc1 (stereo not drawn) [SB203850] | no significant effect |  |  |  |  |  |  |  |  |  |  |  |  |  | 
O=c1ncn2nc(Sc3ccc(F)cc3F)ccc2c1-c1c(Cl)cccc1Cl [VX-745] |  | approximately two-fold | statistically significant difference | statistically significant difference | statistically significant difference | Statistically significant differences | Statistically significant differences | near normalization | No statistically significant differences | No statistically significant differences | one | no observed differences | 0.065 to 0.08 µg/mL | half that for cytokine production | approximately 75 ng/mL
